Results published in patent US20240368120A1 (Terns Pharmaceuticals, Inc., priority 2023, published 2024).

Target: T1, human GLP-1R receptor (Homo sapiens, UniProt P43220)
T1 construct: expressed in transfected cells
Assay: GLP-1R low expression cell assay (cAMP TR-FRET, CHO-K1_hGLP-1Rlow_clone10 cells)
Type: cell-based
Settings: for EC50: cAMP TR-FRET, 30 min at 25° C.; for Emax: maximum activation relative to control GLP-1 peptide agonist
Summary of the method: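 Readout is cAMP TR-FRET after 30 min compound stimulation at 25 °C of a low-GLP-1R-expressing CHO-K1 clone (1,000 cells/well), with 10-point 3-fold serial dilutions. Percent activation versus a control GLP-1 peptide, from duplicates, was Hill-fitted to give EC50.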

T1 sequence (P43220 24-463): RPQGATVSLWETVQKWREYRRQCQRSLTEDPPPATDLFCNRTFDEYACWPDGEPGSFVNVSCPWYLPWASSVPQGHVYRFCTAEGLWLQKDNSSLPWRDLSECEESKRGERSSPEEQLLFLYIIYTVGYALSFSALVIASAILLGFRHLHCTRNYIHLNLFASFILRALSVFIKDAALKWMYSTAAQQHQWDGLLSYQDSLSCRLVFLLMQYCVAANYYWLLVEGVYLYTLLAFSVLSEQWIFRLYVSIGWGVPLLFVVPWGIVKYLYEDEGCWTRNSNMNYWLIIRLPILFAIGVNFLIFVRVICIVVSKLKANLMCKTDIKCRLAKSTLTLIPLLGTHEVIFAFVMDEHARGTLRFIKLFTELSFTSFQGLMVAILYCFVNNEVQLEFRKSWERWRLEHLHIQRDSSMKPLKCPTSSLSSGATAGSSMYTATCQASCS

EC50	Emax	SMILES
100 to 1000 nM	> 85%	Cn1c(CN2CCC(c3cccc(OCc4ccc(OC(F)(F)F)cc4F)n3)CC2)nc2c(OC(F)F)cc(C(=O)O)cc21 [Compound 222]
10 to 100 nM	> 85%	Cn1c(CN2CCC(c3cccc(OCc4ccc(C(F)(F)F)cc4F)n3)CC2)nc2c(OC(F)F)cc(C(=O)O)cc21 [Compound 223]
10 to 100 nM	> 85%	Cn1c(CN2CCC(c3cccc(OCc4ccc(Cl)cc4F)n3)CC2)nc2c(OCC(F)(F)F)cc(C(=O)O)cc21 [Compound 224, 2-((4-(6-((4-Chloro-2-fluorobenzyl)oxy)pyridin-2-yl)piperidin-1-yl)methyl)-1-methyl-4-(2,2,2-trifluoroethoxy)-1H-benzo[d]imidazole-6-carboxylic acid]
< 10 nM	> 85%	COCC(F)(F)Oc1cc(C(=O)O)cc2c1nc(CN1CCC(c3cccc(OCc4ccc(Cl)cc4F)n3)CC1)n2C [Compound 227, 2-((4-(6-((4-Chloro-2-fluorobenzyl)oxy)pyridin-2-yl)piperidin-1-yl)methyl)-4-(1,1-difluoro-2-methoxyethoxy)-1-methyl-1H-benzo[d]imidazole-6-carboxylic acid]
10 to 100 nM	> 85%	COc1ccc(COc2cccc(C3CCN(Cc4nc5c(OC(F)F)cc(C(=O)O)cc5n4C)CC3)n2)c(F)c1 [Compound 228, 4-(Difluoromethoxy)-2-((4-(6-((2-fluoro-4-methoxybenzyl)oxy)pyridin-2-yl)piperidin-1-yl)methyl)-1-methyl-1H-benzo[d]imidazole-6-carboxylic acid]
100 to 1000 nM	> 85%	Cn1c(CN2CCC(c3cccc(OCc4ccc(C(F)(F)F)cn4)n3)CC2)nc2c(OC(F)F)cc(C(=O)O)cc21 [Compound 229, 4-(Difluoromethoxy)-1-methyl-2-((4-(6-((5-(trifluoromethyl)pyridin-2-yl)methoxy)pyridin-2-yl)piperidin-1-yl)methyl)-1H-benzo[d]imidazole-6-carboxylic acid]
> 1000 nM	< 25%	COc1ccc(C2CCN(Cc3nc4c(OC(F)F)cc(C(=O)O)cc4n3C)CC2)cc1OCc1ccc(Cl)cc1F [Compound 230, 2-((4-(3-((4-Chloro-2-fluorobenzyl)oxy)-4-methoxyphenyl)piperidin-1-yl)methyl)-4-(difluoromethoxy)-1-methyl-1H-benzo[d]imidazole-6-carboxylic acid]
10 to 100 nM	> 85%	COc1cc(F)ccc1COc1cccc(C2CCN(Cc3nc4c(OC(F)F)cc(C(=O)O)cc4n3C)CC2)n1 [Compound 231, 4-(Difluoromethoxy)-2-((4-(6-((4-fluoro-2-methoxybenzyl)oxy)pyridin-2-yl)piperidin-1-yl)methyl)-1-methyl-1H-benzo[d]imidazole-6-carboxylic acid]
> 1000 nM	25 to 50%	Cn1c(CN2CCC(c3cccc(OCc4ccc(Cl)cc4F)n3)CC2)nc2c(OC(F)F)cc(-c3nnc(C(F)(F)F)[nH]3)cc21 [Compound 232, 2-((4-(6-((4-Chloro-2-fluorobenzyl)oxy)pyridin-2-yl)piperidin-1-yl)methyl)-4-(difluoromethoxy)-1-methyl-6-(5-(trifluoromethyl)-4H-1,2,4-triazol-3-yl)-1H-benzo[d]imidazole]
> 1000 nM	< 25%	Cn1c(CN2CCC(c3cccc(OCc4ccc(Cl)cc4F)n3)CC2)nc2c(OC(F)F)cc(-c3n[nH]c(=O)o3)cc21 [Compound 234, 5-(2-((4-(6-((4-Chloro-2-fluorobenzyl)oxy)pyridin-2-yl)piperidin-1-yl)methyl)-4-(difluoromethoxy)-1-methyl-1H-benzo[d]imidazol-6-yl)-1,3,4-oxadiazol-2 (3H)-one]
10 to 100 nM	> 85%	Cn1c(CN2CCC(c3cccc(OCc4ccc(Cl)cc4F)n3)CC2)nc2c(OC(F)(F)CF)cc(C(=O)O)cc21 [Compound 235, 2-((4-(6-((4-Chloro-2-fluorobenzyl)oxy)pyridin-2-yl)piperidin-1-yl)methyl)-1-methyl-4-(1,1,2-trifluoroethoxy)-1H-benzo[d]imidazole-6-carboxylic acid]
100 to 1000 nM	50 to 85%	Cn1c(CN2CCC(c3cccc(OCc4ccc(Cl)cc4F)n3)CC2)nc2c(OC(F)F)cc(-c3noc(=O)[nH]3)cc21 [Compound 236, 3-(2-((4-(6-((4-Chloro-2-fluorobenzyl)oxy)pyridin-2-yl)piperidin-1-yl)methyl)-4-(difluoromethoxy)-1-methyl-1H-benzo[d]imidazol-6-yl)-1,2,4-oxadiazol-5 (4H)-one]
10 to 100 nM	> 85%	Cc1ccc(COc2cccc(C3CCN(Cc4nc5c(OC(F)F)cc(C(=O)O)cc5n4C)CC3)n2)c(F)c1 [Compound 238, 4-(Difluoromethoxy)-2-((4-(6-((2-fluoro-4-methylbenzyl)oxy)pyridin-2-yl)piperidin-1-yl)methyl)-1-methyl-1H-benzo[d]imidazole-6-carboxylic acid]
> 1000 nM	50 to 85%	Cn1c(CN2CCC(c3cccnc3NCc3ccc(Cl)cc3F)CC2)nc2c(OC(F)F)cc(C(=O)O)cc21 [Compound 239, 2-((4-(2-((4-Chloro-2-fluorobenzyl)amino)pyridin-3-yl)piperidin-1-yl)methyl)-4-(difluoromethoxy)-1-methyl-1H-benzo[d]imidazole-6-carboxylic acid]
> 1000 nM	< 25%	CN1C(=O)[C@@H](c2ccc(Cl)cc2F)Oc2c(C3CCN(Cc4nc5c(OC(F)F)cc(C(=O)O)cc5n4C)CC3)cccc21 [Compound 240, (R)-2-((4-(2-(4-chloro-2-fluorophenyl)-4-methyl-3-oxo-3,4-dihydro-2H-benzo[b][1,4]oxazin-8-yl)piperidin-1-yl)methyl)-4-(difluoromethoxy)-1-methyl-1H-benzo[d]imidazole-6-carboxylic acid]
> 1000 nM	< 25%	CN1C(=O)[C@H](c2ccc(Cl)cc2F)Oc2c(C3CCN(Cc4nc5c(OC(F)F)cc(C(=O)O)cc5n4C)CC3)cccc21 [Compound 241, (S)-2-((4-(2-(4-chloro-2-fluorophenyl)-4-methyl-3-oxo-3,4-dihydro-2H-benzo[b][1,4]oxazin-8-yl)piperidin-1-yl)methyl)-4-(difluoromethoxy)-1-methyl-1H-benzo[d]imidazole-6-carboxylic acid]
10 to 100 nM	> 85%	Cn1c(CN2CCC(c3ccc(F)c(OCc4ccc(Cl)cc4F)n3)CC2)nc2c(OC(F)F)cc(C(=O)O)cc21 [Compound 242, 2-((4-(6-((4-Chloro-2-fluorobenzyl)oxy)-5-fluoropyridin-2-yl)piperidin-1-yl)methyl)-4-(difluoromethoxy)-1-methyl-1H-benzo[d]imidazole-6-carboxylic acid]
100 to 1000 nM	50 to 85%	Cn1c(CN2CCC(c3nc(OCc4ccc(Cl)cc4F)ccc3F)CC2)nc2c(OC(F)F)cc(C(=O)O)cc21 [Compound 243, 2-((4-(6-((4-Chloro-2-fluorobenzyl)oxy)-3-fluoropyridin-2-yl)piperidin-1-yl)methyl)-4-(difluoromethoxy)-1-methyl-1H-benzo[d]imidazole-6-carboxylic acid]
> 1000 nM	< 25%	O=C(O)c1ccc2nc(CN3CCC(c4cccc(OCc5ccc(Cl)cc5F)n4)CC3)c3c(c2c1)COCC3 [Compound 244, 5-((4-(6-((4-chloro-2-fluorobenzyl)oxy)pyridin-2-yl)piperidin-1-yl)methyl)-3,4-dihydro-1H-pyrano[4,3-c]quinoline-9-carboxylic acid]
< 10 nM	> 85%	O=C(O)c1ccc2c(nc(CN3CCC(c4cccc(OCc5ccc(Cl)cc5F)n4)CC3)n2C[C@@H]2CCO2)c1O [Compound 245, (S)-2-((4-(6-((4-Chloro-2-fluorobenzyl)oxy)pyridin-2-yl)piperidin-1-yl)methyl)-4-hydroxy-1-(oxetan-2-ylmethyl)-1H-benzo[d]imidazole-5-carboxylic acid]
< 10 nM	> 85%	Cn1c(CN2CCC(c3cccc(OCc4ccc(Cl)cc4OC(F)F)n3)CC2)nc2c(OC(F)F)cc(C(=O)O)cc21 [Compound 246, 2-((4-(6-((4-Chloro-2-(difluoromethoxy)benzyl)oxy)pyridin-2-yl)piperidin-1-yl)methyl)-4-(difluoromethoxy)-1-methyl-1H-benzo[d]imidazole-6-carboxylic acid]
100 to 1000 nM	> 85%	Cn1c(CN2CCC(c3cccc(OCc4ccc(Cl)cn4)n3)CC2)nc2c(OC(F)F)cc(C(=O)O)cc21 [Compound 247, 2-((4-(6-((5-Chloropyridin-2-yl)methoxy)pyridin-2-yl)piperidin-1-yl)methyl)-4-(difluoromethoxy)-1-methyl-1H-benzo[d]imidazole-6-carboxylic acid]
100 to 1000 nM	> 85%	Cn1c(CN2CCC(c3cccc(OCc4ccccc4Cl)n3)CC2)nc2c(OC(F)F)cc(C(=O)O)cc21 [Compound 248, 2-((4-(6-((2-Chlorobenzyl)oxy)pyridin-2-yl)piperidin-1-yl)methyl)-4-(difluoromethoxy)-1-methyl-1H-benzo[d]imidazole-6-carboxylic acid]
10 to 100 nM	–	Cn1c(CN2CCC(c3cccc(OCc4ccc(F)cc4F)n3)CC2)nc2c(OC(F)F)cc(C(=O)O)cc21 [Compound 250, 2-((4-(6-((2,4-Difluorobenzyl)oxy)pyridin-2-yl)piperidin-1-yl)methyl)-4-(difluoromethoxy)-1-methyl-1H-benzo[d]imidazole-6-carboxylic acid]
100 to 1000 nM	–	Cn1c(CN2CCC(c3cccc(OCc4ccccc4F)n3)CC2)nc2c(OC(F)F)cc(C(=O)O)cc21 [Compound 251, 4-(Difluoromethoxy)-2-((4-(6-((2-fluorobenzyl)oxy)pyridin-2-yl)piperidin-1-yl)methyl)-1-methyl-1H-benzo[d]imidazole-6-carboxylic acid]
